The values that follow come from ChEMBL document CHEMBL1201862, “PubChem BioAssay data set” (2004).

In assay [1] the target is T1, Melanin-concentrating hormone receptor 1 (Homo sapiens, UniProt Q99705). Briefly: Late-stage fluorescence-based counterscreen for antagonists of the G-protein coupled receptor 7 (GPR7): cell-based dose response assay to identify antagonists of the melanin-concentrating hormone receptor 1 (MCHR1) Set 6. Format: functional.
Assay [2] deals with T2, Neuropeptides B/W receptor type 1 (Homo sapiens, UniProt P48145).
T2 sequence (P48145 whole entry): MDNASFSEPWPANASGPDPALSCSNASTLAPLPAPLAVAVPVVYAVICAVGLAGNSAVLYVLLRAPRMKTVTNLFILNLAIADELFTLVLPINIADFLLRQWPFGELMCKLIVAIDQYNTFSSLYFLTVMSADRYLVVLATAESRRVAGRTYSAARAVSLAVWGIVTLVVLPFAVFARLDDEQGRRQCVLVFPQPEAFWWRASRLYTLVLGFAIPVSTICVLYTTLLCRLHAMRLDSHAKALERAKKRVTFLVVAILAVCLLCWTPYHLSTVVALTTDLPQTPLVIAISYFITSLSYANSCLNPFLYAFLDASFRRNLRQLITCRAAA
Briefly: GPR7 antagonist potency, late-stage follow-up, cell-based, fluorescence, dose response, set 6 (AID 588583). The class given is functional.

The target in assay [3] is Mitochondrial peptide methionine sulfoxide reductase (Bos taurus, UniProt P54149). Format: functional.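 Also: absorbance read-out, biochemical high-throughput dose-response screen for MsrA inhibitors, confirmatory; recombinant bovine MsrA coupled to E. coli TrxB with NADPH and selenocystamine; potency is for inhibitors of MsrA activity on DMSO substrate.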
In assay [4] the target is T3, Acyl-homoserine lactone acylase PvdQ (Pseudomonas aeruginosa (strain LESB58), UniProt Q9I194).
T3 sequence (Q9I194 whole entry): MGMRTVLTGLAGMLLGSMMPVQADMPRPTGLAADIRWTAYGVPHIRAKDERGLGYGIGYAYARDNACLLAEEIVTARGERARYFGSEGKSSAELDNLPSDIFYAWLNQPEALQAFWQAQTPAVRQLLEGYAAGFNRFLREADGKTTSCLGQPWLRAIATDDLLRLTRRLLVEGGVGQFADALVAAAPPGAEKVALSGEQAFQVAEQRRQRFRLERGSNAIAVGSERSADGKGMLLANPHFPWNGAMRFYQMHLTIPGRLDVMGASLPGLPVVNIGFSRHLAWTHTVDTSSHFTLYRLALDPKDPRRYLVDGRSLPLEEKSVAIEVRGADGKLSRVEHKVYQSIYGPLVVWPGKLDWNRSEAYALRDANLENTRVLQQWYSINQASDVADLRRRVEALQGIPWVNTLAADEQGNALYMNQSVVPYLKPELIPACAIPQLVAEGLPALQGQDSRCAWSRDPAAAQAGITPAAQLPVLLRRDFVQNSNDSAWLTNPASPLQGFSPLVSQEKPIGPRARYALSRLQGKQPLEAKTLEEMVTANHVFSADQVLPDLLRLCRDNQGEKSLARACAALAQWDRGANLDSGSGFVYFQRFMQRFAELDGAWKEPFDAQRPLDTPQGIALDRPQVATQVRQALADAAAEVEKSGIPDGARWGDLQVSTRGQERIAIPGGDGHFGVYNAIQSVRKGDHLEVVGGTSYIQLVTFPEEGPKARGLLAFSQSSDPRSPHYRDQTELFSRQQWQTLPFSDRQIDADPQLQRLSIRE
Briefly: P. aeruginosa PvdQ acylase inhibitors, dose response, biochemical, fluorescence, plate reader and imaging, cherry-picks (AID 493231).

Assay [5] deals with HeLa. Briefly: HeLa cell cytotoxicity, dose response, cytotoxicity control, 48 h, plate reader, cherry-picks (AID 504942). Format: functional, cell-based. The following applies: Homo sapiens.
In assay [6] the target is T4, Polyadenylate-binding protein 1 (Homo sapiens, UniProt P11940). Briefly: PABP1 MLLE–PAM2 interaction inhibitors, dose response, miRNA deadenylation inhibitor project, biochemical, fluorescence polarization, Cy5-PAM2 peptide, secondary (AID 602260). The class given is functional. The following applies: read-out: IC50_Mean. A general note: Polarisation of emitted light reports the rotation of a fluorescent probe.

For assay [7], the target named is DNA (cytosine-5)-methyltransferase 1 (Homo sapiens, UniProt P26358). Put plainly: DNMT1 methyltransferase inhibitors, confirmation, biochemical, fluorescent molecular beacon (AID 602386). Format: functional.
Assay [8] concerns the target T4, Polyadenylate-binding protein 1. Briefly: PABP1 MLLE–PAM2 binding inhibitor potency, dose response, biochemical, fluorescence polarization, FITC-PAM2 peptide (AID 602259). The class given is functional. The following applies: read-out: IC50_Mean.
Assay [9] deals with SWI/SNF-related matrix-associated actin-dependent regulator of chromatin subfamily A member 2 (Homo sapiens, UniProt P51531). Briefly: Luminescence-based cell-based high throughput dose response assay to identify activators of the function of SWI/SNF related, matrix associated, actin dependent regulator of chromatin, subfamily a, member 2 (SMARCA2, BRM). The class given is functional.

A short description of assay [10]: Counterscreen for activators of the function of SWI/SNF related, matrix associated, actin dependent regulator of chromatin, subfamily a, member 2 (SMARCA2, BRM): Luminescence-based cell-based high throughput dose response assay to identify non-selective compounds using the VP16 reporter assay. Format: functional.
The target of assay [11] is Cytochrome P450 3A4 (Homo sapiens, UniProt P08684). The following applies: Potency.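 Also: confirmatory qHTS run detecting inhibitors and substrates of CYP3A4.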
The target of assay [12] is T2, Neuropeptides B/W receptor type 1. Briefly: GPR7 antagonist potency, late-stage follow-up, cell-based, fluorescence, dose response, set 5 (AID 588566). The class given is functional.
Assay [13] has as its target T1, Melanin-concentrating hormone receptor 1. Put plainly: Late-stage fluorescence-based counterscreen for antagonists of the G-protein coupled receptor 7 (GPR7): cell-based dose response assay to identify antagonists of the melanin-concentrating hormone receptor 1 (MCHR1) Set 5. Format: functional. For orientation: Counterscreens check selectivity or assay interference.

Assay [14] deals with Interleukin-8 (Homo sapiens, UniProt P10145). Briefly: Dose Response confirmation of uHTS small molecule hits for cystic fibrosis induced NFkb Inhibitors in a PAF-induced IL8 counterscreen. The following applies: read-out: IC50_Mean. Format: functional.
Assay [15] deals with Trypsin (Sus scrofa, UniProt P00761). Briefly: porcine trypsin inhibitors, dose response, selectivity assay for Rce1 protease inhibitor project, biochemical, quenched peptide fluorescence, cherry-pick (AID 488789).
The subject of assay [16] is HEK293. Briefly: inhibitors of LMP1-driven NF-kB reporter, dose response, cell-based, HEK293, luciferase, cherry-pick (AID 588343). Format: functional. The following applies: Homo sapiens.
Assay [17] addresses T5, Protein skinhead-1 (Caenorhabditis elegans, UniProt P34707).
T5 sequence (P34707 whole entry): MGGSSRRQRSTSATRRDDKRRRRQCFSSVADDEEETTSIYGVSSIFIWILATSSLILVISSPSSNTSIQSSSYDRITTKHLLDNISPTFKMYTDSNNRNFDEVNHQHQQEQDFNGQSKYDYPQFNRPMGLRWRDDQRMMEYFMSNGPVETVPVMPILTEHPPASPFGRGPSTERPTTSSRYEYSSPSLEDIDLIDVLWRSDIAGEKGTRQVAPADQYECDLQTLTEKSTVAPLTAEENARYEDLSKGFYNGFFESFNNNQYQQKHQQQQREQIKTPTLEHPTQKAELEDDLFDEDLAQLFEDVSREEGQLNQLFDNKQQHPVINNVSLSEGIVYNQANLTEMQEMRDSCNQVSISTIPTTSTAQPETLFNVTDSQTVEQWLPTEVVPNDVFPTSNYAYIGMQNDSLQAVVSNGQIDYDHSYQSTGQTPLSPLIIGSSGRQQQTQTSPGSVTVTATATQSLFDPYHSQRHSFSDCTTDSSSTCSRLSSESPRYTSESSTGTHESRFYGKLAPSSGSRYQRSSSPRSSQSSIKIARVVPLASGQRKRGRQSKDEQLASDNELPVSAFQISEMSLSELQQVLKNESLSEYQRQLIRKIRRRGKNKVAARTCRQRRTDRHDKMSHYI
Format: functional.

Assay [18] has as its target Eukaryotic translation initiation factor 4E (Mus musculus, UniProt P63073). Put plainly: eIF4E–eIF4G protein interaction inhibitors, dose response, biochemical, TR-FRET (AID 855).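 Also: potency for disrupting eIF4E binding to eIF4GI seen as loss of FRET.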 The class given is functional. A general note: In TR-FRET formats the signal depends on donor and acceptor labels being close together.
Assay [19] can be described thus: AlphaScreen signal interference compounds, dose response, artefact control for ARNT-TACC3 interaction inhibitor project, biochemical, luminescence, cherry-pick (AID 651705).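 Also: AlphaScreen bead proximity signal that flags compounds interfering with the detection technology; potency reflects signal decrease which marks the compound as an assay artifact.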 The class given is functional.
Assay [20] addresses Induced myeloid leukemia cell differentiation protein Mcl-1 (Homo sapiens, UniProt Q07820). The class given is functional.
Assay [21] has as its system Vero. Briefly: Vero cell cytotoxicity, cytotoxicity control for flavivirus capping enzyme inhibitors (AID 588742). The class given is functional. The following applies: Chlorocebus sabaeus.
Assay [22] concerns Streptococcus sp. 'group A'. Briefly: growth inhibition of control SK(-) GAS strain, dose response, counter-screen for streptokinase expression inhibitor project, luminescence, kanamycin, BacTiterGlo, confirmation (AID 1900). Format: functional, organism-based.
For assay [23], the system named is BJ. Briefly: cytotoxicity toward BJ-TERT fibroblasts, dose response, cell-based, RAS-independent, luminescence (AID 1933). The class given is functional. The following applies: Homo sapiens.
The test system of assay [24] is BJ. Put plainly: cells. Format: functional, cell-based. The following applies: Homo sapiens.
A short description of assay [25]: inhibitors of intracellular T. cruzi replication, confirmation, NIH3T3 host cells, beta-gal luminescence (AID 2044).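 Also: intracellular parasites grown in NIH/3T3 mouse fibroblasts as host cells; luminescent beta-galactosidase reporter signal from transgenic T. cruzi replicating inside host cells; inhibitors lower the luminescence signal.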 The class given is functional, cell-based.
A short description of assay [26]: cytotoxicity toward NIH3T3 fibroblasts, dose response, counter-screen, cell-based, ATP luminescence, mouse fibroblasts (AID 2010).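 Also: cells exposed to compound for about 90 hours before reading.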 The class given is functional.
In assay [27] the test system is BJ. Briefly: cytotoxicity toward BJ-TERT-LT-ST fibroblasts, dose response, cell-based, RAS-independent, luminescence (AID 1935).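 Also: BJ fibroblasts immortalized with TERT plus LT and ST oncogenes.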 Format: functional. The following applies: Homo sapiens.
Assay [28] in a line: cytotoxicity toward DRD oncogenic fibroblasts, dose response, cell-based, non-viral oncogenic, luminescence (AID 1934). Format: functional. The following applies: Homo sapiens.
The subject of assay [29] is Streptococcus. Put plainly: Group A Streptococcus viability loss, dose response, counter-screen for streptokinase expression inhibitor project, luminescence, BacTiterGlo (AID 1915).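 Also: potency for reduction of bacterial viability or growth.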 Format: functional, organism-based.
The target in assay [30] is Nonstructural protein 1 (Influenza A virus, UniProt Q194T2). The class given is functional, Influenza A virus (A/California/07/2009(H1N1)).
The subject of assay [31] is Vero. Put plainly: cells. Format: functional. The following applies: Chlorocebus sabaeus.
The target in assay [32] is Platelet-activating factor acetylhydrolase (Mus musculus, UniProt Q60963). Put plainly: Late stage assay provider results from the probe development effort to identify inhibitors of pPAFAH: fluorescence-based dose-response biochemical gel-based competitive Activity-Based Protein Profiling (ABPP) assay for SAR compounds. The class given is functional.
Assay [33] deals with Ras and Rab interactor 1/Tyrosine-protein kinase ABL1 (Homo sapiens, UniProt P00519+Q13671). Format: functional.

The source made the active and inactive calls. A value given as a limit tells only on which side of the number the result lay.

A word on the AC50: it is the midpoint of the concentration-response curve, whichever way the signal moves. One may read the EC50 as the midpoint of the concentration-response curve. The term CC50 denotes the concentration giving 50% cytotoxicity.

T1 sequence (Q99705 whole entry): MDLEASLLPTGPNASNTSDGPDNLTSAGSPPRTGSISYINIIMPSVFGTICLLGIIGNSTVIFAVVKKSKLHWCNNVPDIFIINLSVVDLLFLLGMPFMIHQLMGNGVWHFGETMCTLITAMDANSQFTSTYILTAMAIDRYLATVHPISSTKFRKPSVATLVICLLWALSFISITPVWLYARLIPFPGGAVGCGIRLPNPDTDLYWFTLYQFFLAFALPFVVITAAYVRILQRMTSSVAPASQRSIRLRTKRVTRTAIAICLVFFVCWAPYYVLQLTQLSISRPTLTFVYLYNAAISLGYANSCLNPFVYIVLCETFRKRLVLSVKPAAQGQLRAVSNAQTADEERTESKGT
T4 sequence (P11940 whole entry): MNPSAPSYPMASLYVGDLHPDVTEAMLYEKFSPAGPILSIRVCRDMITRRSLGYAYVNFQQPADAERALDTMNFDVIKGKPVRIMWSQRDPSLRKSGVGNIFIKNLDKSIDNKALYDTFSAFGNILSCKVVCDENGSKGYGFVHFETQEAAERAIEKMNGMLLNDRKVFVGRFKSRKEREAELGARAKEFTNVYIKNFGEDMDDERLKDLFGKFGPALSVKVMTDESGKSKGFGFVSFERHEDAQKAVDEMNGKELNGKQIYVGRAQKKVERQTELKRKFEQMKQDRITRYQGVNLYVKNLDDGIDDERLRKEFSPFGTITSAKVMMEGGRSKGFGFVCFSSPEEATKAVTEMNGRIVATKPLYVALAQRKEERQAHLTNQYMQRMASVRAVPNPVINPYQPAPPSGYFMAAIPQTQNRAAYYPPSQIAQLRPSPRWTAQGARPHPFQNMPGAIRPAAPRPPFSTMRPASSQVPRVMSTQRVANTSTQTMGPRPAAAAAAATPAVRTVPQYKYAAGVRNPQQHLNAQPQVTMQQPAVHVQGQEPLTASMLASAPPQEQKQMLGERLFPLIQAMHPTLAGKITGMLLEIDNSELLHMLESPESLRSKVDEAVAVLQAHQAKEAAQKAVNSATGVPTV
Chain of Ras and Rab interactor 1/Tyrosine-protein kinase ABL1 (P00519 whole entry): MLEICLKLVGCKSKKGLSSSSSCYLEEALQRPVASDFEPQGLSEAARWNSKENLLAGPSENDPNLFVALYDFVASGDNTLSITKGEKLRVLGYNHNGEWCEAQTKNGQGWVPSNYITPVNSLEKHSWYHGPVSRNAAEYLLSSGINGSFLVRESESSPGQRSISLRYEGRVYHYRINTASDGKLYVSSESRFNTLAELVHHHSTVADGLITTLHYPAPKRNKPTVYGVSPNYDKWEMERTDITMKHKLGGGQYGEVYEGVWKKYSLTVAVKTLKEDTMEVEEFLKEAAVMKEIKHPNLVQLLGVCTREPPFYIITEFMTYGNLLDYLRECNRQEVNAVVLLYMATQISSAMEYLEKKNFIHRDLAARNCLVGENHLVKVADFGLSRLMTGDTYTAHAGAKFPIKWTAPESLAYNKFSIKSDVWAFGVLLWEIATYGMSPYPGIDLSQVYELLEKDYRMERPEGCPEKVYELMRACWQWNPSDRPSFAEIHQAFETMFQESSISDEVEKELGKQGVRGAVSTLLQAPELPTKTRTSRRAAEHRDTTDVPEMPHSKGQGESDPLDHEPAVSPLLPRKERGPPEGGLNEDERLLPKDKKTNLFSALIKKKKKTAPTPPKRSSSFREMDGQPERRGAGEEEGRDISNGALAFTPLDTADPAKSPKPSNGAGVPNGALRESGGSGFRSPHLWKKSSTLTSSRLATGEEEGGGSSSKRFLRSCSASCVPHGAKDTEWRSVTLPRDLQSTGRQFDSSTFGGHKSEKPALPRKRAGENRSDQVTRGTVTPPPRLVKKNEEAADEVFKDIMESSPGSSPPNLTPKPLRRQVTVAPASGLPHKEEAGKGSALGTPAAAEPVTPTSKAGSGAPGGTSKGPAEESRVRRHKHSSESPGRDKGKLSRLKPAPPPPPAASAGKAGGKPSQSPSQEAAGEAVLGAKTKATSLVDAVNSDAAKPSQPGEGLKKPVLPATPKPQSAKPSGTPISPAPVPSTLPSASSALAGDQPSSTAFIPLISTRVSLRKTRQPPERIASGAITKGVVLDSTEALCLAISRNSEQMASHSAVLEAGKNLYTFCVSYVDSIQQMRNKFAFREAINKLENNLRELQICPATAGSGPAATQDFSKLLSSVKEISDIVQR
Chain of Ras and Rab interactor 1/Tyrosine-protein kinase ABL1 (Q13671 whole entry): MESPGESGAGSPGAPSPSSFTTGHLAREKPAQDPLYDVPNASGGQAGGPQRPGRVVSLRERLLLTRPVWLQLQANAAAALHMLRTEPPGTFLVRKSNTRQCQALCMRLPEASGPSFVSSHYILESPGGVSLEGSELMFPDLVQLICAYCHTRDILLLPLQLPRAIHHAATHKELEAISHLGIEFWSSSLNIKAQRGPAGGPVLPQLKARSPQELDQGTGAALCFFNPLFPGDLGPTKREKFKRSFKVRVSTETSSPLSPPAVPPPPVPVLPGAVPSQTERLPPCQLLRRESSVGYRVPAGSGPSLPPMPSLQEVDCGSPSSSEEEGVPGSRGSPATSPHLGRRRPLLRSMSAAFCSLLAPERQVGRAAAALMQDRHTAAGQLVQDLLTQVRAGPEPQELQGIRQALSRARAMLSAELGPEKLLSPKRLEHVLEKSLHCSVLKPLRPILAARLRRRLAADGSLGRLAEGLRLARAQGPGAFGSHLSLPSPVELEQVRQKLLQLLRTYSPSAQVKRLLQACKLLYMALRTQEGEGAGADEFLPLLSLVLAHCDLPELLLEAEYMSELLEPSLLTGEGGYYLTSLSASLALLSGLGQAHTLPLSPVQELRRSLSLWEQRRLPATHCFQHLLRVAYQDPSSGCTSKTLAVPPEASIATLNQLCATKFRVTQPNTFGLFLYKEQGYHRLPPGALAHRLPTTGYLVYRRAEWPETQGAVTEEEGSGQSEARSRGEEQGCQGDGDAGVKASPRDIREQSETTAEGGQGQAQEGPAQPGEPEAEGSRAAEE
Chain of Cytochrome P450 3A4 (P08684 whole entry): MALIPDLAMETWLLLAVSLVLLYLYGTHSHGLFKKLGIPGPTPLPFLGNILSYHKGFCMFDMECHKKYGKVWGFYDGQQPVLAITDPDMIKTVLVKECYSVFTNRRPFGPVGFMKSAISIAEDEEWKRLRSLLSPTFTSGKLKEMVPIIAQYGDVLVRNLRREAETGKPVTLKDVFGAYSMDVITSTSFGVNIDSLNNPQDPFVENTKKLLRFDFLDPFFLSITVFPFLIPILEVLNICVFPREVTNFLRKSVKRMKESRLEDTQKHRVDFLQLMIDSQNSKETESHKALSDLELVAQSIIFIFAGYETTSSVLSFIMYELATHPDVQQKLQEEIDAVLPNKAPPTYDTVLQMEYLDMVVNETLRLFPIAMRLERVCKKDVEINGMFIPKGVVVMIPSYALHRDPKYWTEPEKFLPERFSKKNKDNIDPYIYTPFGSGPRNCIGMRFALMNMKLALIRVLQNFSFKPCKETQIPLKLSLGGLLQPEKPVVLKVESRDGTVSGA
Chain of Interleukin-8 (P10145 whole entry): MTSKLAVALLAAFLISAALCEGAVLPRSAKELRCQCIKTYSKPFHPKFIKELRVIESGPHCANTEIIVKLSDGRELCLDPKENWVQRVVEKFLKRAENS
Chain of Platelet-activating factor acetylhydrolase (Q60963 whole entry): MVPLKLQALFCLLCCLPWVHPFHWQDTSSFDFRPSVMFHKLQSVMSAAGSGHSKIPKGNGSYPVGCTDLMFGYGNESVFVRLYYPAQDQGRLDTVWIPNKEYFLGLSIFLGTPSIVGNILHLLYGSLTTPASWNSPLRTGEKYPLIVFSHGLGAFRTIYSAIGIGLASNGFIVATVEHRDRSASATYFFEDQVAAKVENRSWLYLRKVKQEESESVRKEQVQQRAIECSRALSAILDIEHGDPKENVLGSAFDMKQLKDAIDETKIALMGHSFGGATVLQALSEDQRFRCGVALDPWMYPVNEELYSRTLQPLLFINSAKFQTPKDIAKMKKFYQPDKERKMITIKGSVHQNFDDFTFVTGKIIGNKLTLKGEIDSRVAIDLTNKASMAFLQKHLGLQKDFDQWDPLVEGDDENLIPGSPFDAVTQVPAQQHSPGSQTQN
Chain of Trypsin (P00761 whole entry): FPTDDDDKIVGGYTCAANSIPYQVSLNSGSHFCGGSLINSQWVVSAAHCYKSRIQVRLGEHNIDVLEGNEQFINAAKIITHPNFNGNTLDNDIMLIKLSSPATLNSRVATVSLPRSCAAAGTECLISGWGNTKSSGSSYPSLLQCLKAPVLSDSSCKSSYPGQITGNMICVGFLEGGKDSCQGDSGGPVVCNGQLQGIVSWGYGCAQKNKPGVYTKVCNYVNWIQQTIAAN
Chain of Eukaryotic translation initiation factor 4E (P63073 whole entry): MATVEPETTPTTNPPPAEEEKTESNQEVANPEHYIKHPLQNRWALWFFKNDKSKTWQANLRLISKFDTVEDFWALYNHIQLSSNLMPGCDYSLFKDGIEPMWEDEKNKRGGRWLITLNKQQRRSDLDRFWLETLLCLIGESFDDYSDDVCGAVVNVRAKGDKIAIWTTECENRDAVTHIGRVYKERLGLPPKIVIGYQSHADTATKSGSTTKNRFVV
Chain of Nonstructural protein 1 (Q194T2 whole entry): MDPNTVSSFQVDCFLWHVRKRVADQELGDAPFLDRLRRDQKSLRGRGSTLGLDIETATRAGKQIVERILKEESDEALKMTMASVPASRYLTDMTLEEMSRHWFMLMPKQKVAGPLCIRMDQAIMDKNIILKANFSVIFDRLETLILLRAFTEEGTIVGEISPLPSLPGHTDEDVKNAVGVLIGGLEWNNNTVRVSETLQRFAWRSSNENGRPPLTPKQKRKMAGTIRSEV
Chain of Induced myeloid leukemia cell differentiation protein Mcl-1 (Q07820 whole entry): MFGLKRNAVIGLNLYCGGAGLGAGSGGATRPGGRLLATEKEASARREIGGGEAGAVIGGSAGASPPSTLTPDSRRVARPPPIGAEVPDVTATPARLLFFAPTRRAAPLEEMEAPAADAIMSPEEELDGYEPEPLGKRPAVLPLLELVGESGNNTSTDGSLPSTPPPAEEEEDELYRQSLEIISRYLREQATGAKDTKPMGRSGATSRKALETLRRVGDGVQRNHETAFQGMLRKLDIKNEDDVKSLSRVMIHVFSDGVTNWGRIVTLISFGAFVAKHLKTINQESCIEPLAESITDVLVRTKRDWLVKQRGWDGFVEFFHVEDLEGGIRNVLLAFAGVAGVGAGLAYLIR

Regarding `N#CC(C#N)c1c(Cl)cnn(Cc2cccc3ccccc23)c1=O`, the IC50 in [1] and in [2] was 17.4 µM (inactive) each time.
For the molecule `C/C(=N\Nc1ccc(S(N)(=O)=O)cc1[N+](=O)[O-])c1cccnc1`, the IC50 in assay [3] is 155 µM (inactive).
On to `COc1ccc(/C(C#N)=C/c2cccnc2)cc1`, for which the AC50 in assay [4] is 9.73 µM (active); in [5], 254 µM (active).
For `O=C1c2ccccc2-c2cccc3cccc1c23` [BENZANTHRONE], the IC50 in [6] is > 66 µM (inactive); in [7] it was 41 µM (active); in assay [8], 34 µM (inactive). For the same molecule, the EC50 in assay [9] and in assay [10] was > 91.2 µM (inactive) throughout. Besides, the AC50 in assay [11] was 39.8 µM (inconclusive).
In the case of `CCOC(=O)C(C#N)c1ccnn(Cc2cccc3ccccc23)c1=O` (configuration not stated), the results for the IC50 in assay [12] and in assay [13] were 1.74 µM (active) and 15 µM (inactive), respectively.
With `N#CC(c1ccccn1)c1c(Cl)cnn(Cc2cccc3ccccc23)c1=O` (configuration not stated), the IC50 in assay [1] and in assay [2] was 0.564 µM (active) throughout.
Regarding `NC(=O)c1cc2ccc(O)cc2o/c1=N\c1ccccc1`, in assay [14], the IC50 is 6.71 µM (active).
As for `c1ccn2cc(-c3ccc4c(c3)OCCO4)nc2c1`, the AC50 in [4] is 4.31 µM (active); in assay [15] it was 6.17 µM (active); in assay [16], 1.53 µM (active); in assay [5] it was 55.2 µM (active). The IC50 in assay [17] is > 100 µM (inactive).
Turning to `CC(C)(C)C1=Nn2c(nnc2-c2ccccn2)SC1`, the IC50 in [18] is > 64 µM (inactive). The AC50 in assay [19] is 107 µM (active).
Take `CNc1ccc(Br)cc(C(=O)/C=C/c2ccc(OC)cc2OC)c1=O`: the IC50 in [20] was 2.17 µM (active). The CC50 in assay [21] was > 40 µM (active).
As for `CCc1ccc2c(c1)C1(NN=C(c3ccccc3)S1)C(=O)N2` (configuration not stated), the EC50 in assay [22] was 0.278 µM (active); in assay [23], 13.7 µM (inconclusive); in [24] it was 86.3 µM (active); in assay [25], 0.524 µM (active); in assay [26], 5.31 µM (active); in [27], 17.7 µM (inconclusive). Also, the values for the EC50 in [28] and in assay [29] were 49.4 µM (active) and 1.84 µM (active), respectively. Also, the IC50 was 45.5 µM (active) in assay [30], > 66 µM (inactive) in assay [6] and > 66 µM (inactive) in assay [8]. The CC50 in assay [21] is 7.61 µM (active); in assay [31], 14.9 µM (active).
On to `Cc1cc(N2CCN(C(=O)Oc3ccc(-n4cccc4)cc3)CC2)c2ccccc2n1`, for which the IC50 in [32] is 0.057 µM (active).
As to `N#CC(c1ccsc1)c1c(Cl)cnn(Cc2cccc3ccccc23)c1=O` (configuration not stated), the IC50 in assay [12] is 0.325 µM (active); in assay [13], 0.794 µM (active).
On to `CCOC(=O)CCCCC(=O)c1[nH]c(O)nc1CN1CCOCC1`, for which, in [33], the IC50 was 0.548 µM (active).
